Assay results from patent US8765940B2 (priority 2009, dated 2014).

Molecular target: PI3Kδ (Homo sapiens (Human), UniProt O00329)
Type: biochemical
Conditions: PI3Kδ Alphascreen assay
Procedure: A PI3K Alphascreen® assay (PerkinElmer, Waltham, Mass.) was used to measure the activity of a panel of four phosphoinositide 3-kinases: PI3Kα, PI3Kβ, PI3Kγ, and PI3Kδ. Enzyme reaction buffer was prepared using sterile water (Baxter, Deerfield, Ill.) and 50 mM Tris HCl pH 7, 14 mM MgCl2, 2 mM sodium cholate, and 100 mM NaCl. 2 mM DTT was added fresh the day of the experiment. The Alphascreen buffer was made using sterile water and 10 mM Tris HCl pH 7.5, 150 mM NaCl, 0.10% Tween 20, and 30 mM EDTA. 1 mM DTT was added fresh the day of the experiment. Compound source plates used for this assay were 384-well Greiner clear polypropylene plates containing test compounds at 5 mM and diluted 1:2 over 22 concentrations. Columns 23 and 24 contained only DMSO as these wells comprised the positive and negative controls, respectively. Source plates were replicated by transferring 0.5 uL per well into 384-well Optiplates (PerkinElmer, Waltham, Mass.).
Each PI3K isoform was diluted in enzyme reaction buffer to 2× working stocks. PI3Kα was diluted to 1.6 nM, PI3Kβ was diluted to 0.8 nM, PI3Kγ was diluted to 15 nM, and PI3Kδ was diluted to 1.6 nM. PI(4,5)P2 (Echelon Biosciences, Salt Lake City, Utah) was diluted to 10 μM and ATP was diluted to 20 μM. This 2× stock was used in the assays for PI3Kα and PI3Kβ. For assay of PI3Kγ and PI3Kδ, PI(4,5)P2 was diluted to 10 μM and ATP was diluted to 8 μM to prepare a similar 2× working stock. Alphascreen reaction solutions were made using beads from the anti-GST Alphascreen kit (PerkinElmer, Waltham, Mass.). Two 4× working stocks of the Alphascreen reagents were made in Alphascreen reaction buffer. In one stock, biotinylated-IP4 (Echelon Biosciences, Salt Lake City, Utah) was diluted to 40 nM and streptavadin-donor beads were diluted to 80 μg/mL. In the second stock, PIP3-binding protein (Echelon Biosciences, Salt Lake City, Utah) was diluted to 40 nM and anti-GST-acceptor beads were diluted to 80 μg/mL.
Using a 384-well Multidrop (Titertek, Huntsville, Ala.), 10 μL/well of 2× enzyme stock was added to columns 1-24 of the assay plates for each isoform. 10 μL/well of the appropriate substrate 2× stock (containing 20 μM ATP for the PI3Kα and β assays and containing 8 μM ATP for the PI3Kγ and δ assays) was then added to Columns 1-24 of all plates. Plates were then incubated at room temperature for 20 minutes. In the dark, 10 μL/well of the donor bead solution was added to columns 1-24 of the plates to quench the enzyme reaction. The plates were incubated at room temperature for 30 minutes. Still in the dark, 10 μL/well of the acceptor bead solution was added to columns 1-24 of the plates. The plates were then incubated in the dark for 1.5 hours. The plates were read on an Envision multimode Plate Reader (PerkinElmer, Waltham, Mass.) using a 680 nm excitation filter and a 520-620 nm emission filter.

Sequence of PI3Kδ (O00329 whole entry): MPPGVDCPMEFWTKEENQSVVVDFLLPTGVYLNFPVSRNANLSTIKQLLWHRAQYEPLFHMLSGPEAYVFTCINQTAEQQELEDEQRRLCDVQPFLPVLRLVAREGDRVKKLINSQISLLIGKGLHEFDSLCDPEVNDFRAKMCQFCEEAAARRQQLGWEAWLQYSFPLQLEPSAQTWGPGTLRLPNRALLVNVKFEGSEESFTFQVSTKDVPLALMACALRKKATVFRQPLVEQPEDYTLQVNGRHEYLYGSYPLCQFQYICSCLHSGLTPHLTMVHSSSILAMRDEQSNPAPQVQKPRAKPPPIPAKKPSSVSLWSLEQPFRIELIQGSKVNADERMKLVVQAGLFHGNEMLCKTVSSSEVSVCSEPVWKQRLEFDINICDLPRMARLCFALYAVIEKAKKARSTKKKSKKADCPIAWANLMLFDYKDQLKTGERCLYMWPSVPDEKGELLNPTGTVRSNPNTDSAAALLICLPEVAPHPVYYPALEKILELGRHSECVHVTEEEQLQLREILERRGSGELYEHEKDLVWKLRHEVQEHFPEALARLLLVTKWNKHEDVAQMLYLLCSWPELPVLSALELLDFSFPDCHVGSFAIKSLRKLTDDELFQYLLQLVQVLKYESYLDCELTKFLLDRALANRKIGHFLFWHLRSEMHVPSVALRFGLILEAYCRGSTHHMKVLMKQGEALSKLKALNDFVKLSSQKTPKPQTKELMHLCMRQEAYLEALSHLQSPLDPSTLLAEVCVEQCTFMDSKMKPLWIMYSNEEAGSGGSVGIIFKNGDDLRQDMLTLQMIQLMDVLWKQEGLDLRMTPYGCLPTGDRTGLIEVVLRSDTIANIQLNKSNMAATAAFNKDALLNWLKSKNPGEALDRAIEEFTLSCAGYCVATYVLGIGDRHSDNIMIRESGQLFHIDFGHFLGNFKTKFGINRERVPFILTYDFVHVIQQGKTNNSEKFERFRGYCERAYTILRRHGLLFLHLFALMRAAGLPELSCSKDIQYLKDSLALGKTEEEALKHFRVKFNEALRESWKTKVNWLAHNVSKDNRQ
Sequence of PI3Kδ (P27986 whole entry partner): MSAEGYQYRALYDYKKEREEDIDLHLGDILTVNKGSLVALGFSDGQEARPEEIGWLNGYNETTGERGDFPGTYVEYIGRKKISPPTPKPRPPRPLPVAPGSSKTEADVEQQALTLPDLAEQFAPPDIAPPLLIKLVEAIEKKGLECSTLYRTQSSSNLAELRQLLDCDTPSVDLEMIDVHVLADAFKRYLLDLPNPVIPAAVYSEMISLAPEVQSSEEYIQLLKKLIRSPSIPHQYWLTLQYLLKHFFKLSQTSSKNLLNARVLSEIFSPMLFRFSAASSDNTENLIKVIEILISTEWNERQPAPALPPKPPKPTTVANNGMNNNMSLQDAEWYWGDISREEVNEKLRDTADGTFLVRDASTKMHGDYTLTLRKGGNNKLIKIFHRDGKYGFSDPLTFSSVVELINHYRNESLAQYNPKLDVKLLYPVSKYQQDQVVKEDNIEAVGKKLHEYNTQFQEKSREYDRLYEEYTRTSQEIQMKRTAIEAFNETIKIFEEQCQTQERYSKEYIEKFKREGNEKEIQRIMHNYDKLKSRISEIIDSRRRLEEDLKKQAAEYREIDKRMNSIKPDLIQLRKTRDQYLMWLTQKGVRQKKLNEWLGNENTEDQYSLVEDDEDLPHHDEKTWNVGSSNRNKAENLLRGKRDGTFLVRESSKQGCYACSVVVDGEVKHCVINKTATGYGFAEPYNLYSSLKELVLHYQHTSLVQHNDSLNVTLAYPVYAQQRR

SMILES	Ki [nM]
Cc1c(-c2cccc(F)c2)nc2ncccc2c1N1CC(C)(C)c2ncc(N3CCOCC3)cc21 [4-(3,3-dimethyl-6-(4-morpholinyl)-2,3-dihydro-1H-pyrrolo[3,2-b]pyridin-1-yl)-2-(3-fluorophenyl)-3-methyl-1,8-naphthyridine]	5.38
Cc1c(-c2ccccn2)nc2ncccc2c1N1CCOc2ccc(N3CCOCC3)cc21 [4-(3-methyl-2-(2-pyridinyl)-1,8-naphthyridin-4-yl)-6-(4-morpholinyl)-3,4-dihydro-2H-1,4-benzoxazine]	883
COc1cc2nc(C)c(C)c(N3CC(C)(C)c4ccc(N5CCOCC5)c(C)c43)c2cc1Cl [6-chloro-7-methoxy-2,3-dimethyl-4-(3,3,7-trimethyl-6-(4-morpholinyl)-2,3-dihydro-1H-indol-1-yl)quinoline]	3960
Cc1c(CCc2ccccc2)nc2cc(F)cc(F)c2c1N1CC(C)(C)c2ncc(N3CCOCC3)cc21 [4-(3,3-dimethyl-6-(4-morpholinyl)-2,3-dihydro-1H-pyrrolo[3,2-b]pyridin-1-yl)-5,7-difluoro-3-methyl-2-(2-phenylethyl)quinoline]	8.12
Cc1c(-c2cc(F)cc(F)c2)nc2cnccc2c1N1CC(C)(C)c2ncc(N3CCOCC3)cc21 [2-(3,5-difluorophenyl)-4-(3,3-dimethyl-6-(4-morpholinyl)-2,3-dihydro-1H-pyrrolo[3,2-b]pyridin-1-yl)-3-methyl-1,7-naphthyridine]	2.36
Cc1c(-c2cc(C(F)(F)F)cc(C(F)(F)F)c2)nc2cc(F)ccc2c1N1CC(C)(C)c2ccc(N3CCOCC3)cc21 [2-(3,5-bis(trifluoromethyl)phenyl)-4-(3,3-dimethyl-6-(4-morpholinyl)-2,3-dihydro-1H-indol-1-yl)-7-fluoro-3-methylquinoline]	3080
COc1cc2nc(C)c(C)c(N3CC4(CCOCC4)c4ccc(C#N)cc43)c2cc1Cl [1-(6-chloro-7-methoxy-2,3-dimethyl-4-quinolinyl)-1,2,2′,3′,5′,6′-hexahydrospiro[indole-3,4′-pyran]-6-carbonitrile]	7500
Cc1cc(-c2ccc3c(c2)N(c2c(C)c(-c4ccccn4)nc4cc(F)ccc24)CC3(C)C)nc(N)n1 [4-(1-(7-fluoro-3-methyl-2-(2-pyridinyl)-4-quinolinyl)-3,3-dimethyl-2,3-dihydro-1H-indol-6-yl)-6-methyl-2-pyrimidinamine]	449
COc1cc2nc(C)c(C)c(N3CC(C)(C)c4ccc(N5CCOCC5)cc43)c2cc1Cl [6-chloro-4-(3,3-dimethyl-6-(4-morpholinyl)-2,3-dihydro-1H-indol-1-yl)-7-methoxy-2,3-dimethylquinoline]	196
CC1(C)CN(c2c(C#N)c(-c3ccccn3)nc3cc(F)ccc23)c2cc(N3CCOCC3)cnc21 [4-(3,3-dimethyl-6-(4-morpholinyl)-2,3-dihydro-1H-pyrrolo[3,2-b]pyridin-1-yl)-7-fluoro-2-(2-pyridinyl)-3-quinolinecarbonitrile]	437
Cc1c(-c2ccccn2)nc2cc(F)ccc2c1N1CC(C)(C)c2nc(Cl)c(N3CCOCC3)cc21 [4-(5-chloro-3,3-dimethyl-6-(4-morpholinyl)-2,3-dihydro-1H-pyrrolo[3,2-b]pyridin-1-yl)-7-fluoro-3-methyl-2-(2-pyridinyl)quinoline]	3.16
Cc1c(Cc2cccc(C#N)c2)nc2cc(F)cc(F)c2c1N1CC(C)(C)c2ncc(N3CCOCC3)cc21 [3-((4-(3,3-dimethyl-6-(4-morpholinyl)-2,3-dihydro-1H-pyrrolo[3,2-b]pyridin-1-yl)-5,7-difluoro-3-methyl-2-quinolinyl)methyl)benzonitrile]	2.68
Cc1c(-c2ccccc2)nc2ccccc2c1N1CC2(CCOCC2)c2ccc(N3CCOCC3)cc21 [1-(3-methyl-2-phenyl-4-quinolinyl)-6-(4-morpholinyl)-1,2,2′,3′,5′,6′-hexahydrospiro[indole-3,4′-pyran]]	91.3
COc1cc2nc(C)c(C)c(N3CC(C)(C)c4ccc(N5CCOCC5)cc43)c2cc1C [4-(3,3-dimethyl-6-(4-morpholinyl)-2,3-dihydro-1H-indol-1-yl)-7-methoxy-2,3,6-trimethylquinoline]	622
Cc1c(-c2ccc3c(ccn3C)c2)nc2cc(F)cc(F)c2c1N1CC(C)(C)c2ncc(N3CCOCC3)cc21 [4-(3,3-dimethyl-6-(4-morpholinyl)-2,3-dihydro-1H-pyrrolo[3,2-b]pyridin-1-yl)-5,7-difluoro-3-methyl-2-(1-methyl-1H-indol-5-yl)quinoline]	195
Cc1c(-c2ccccc2S(C)(=O)=O)nc2cc(F)ccc2c1N1CC(C)(C)c2ncc(N3CCOCC3)cc21 [4-(3,3-dimethyl-6-(4-morpholinyl)-2,3-dihydro-1H-pyrrolo[3,2-b]pyridin-1-yl)-7-fluoro-3-methyl-2-(2-(methylsulfonyl)phenyl)quinoline]	7.8
CCc1c(C)nc2ccc(Cl)cc2c1N1CC(C)(C)c2ccc(N3CCOCC3)cc21 [6-chloro-4-(3,3-dimethyl-6-(4-morpholinyl)-2,3-dihydro-1H-indol-1-yl)-3-ethyl-2-methylquinoline]	1130
Cc1c(-c2ccccn2)nc2cc(F)ccc2c1N1CC2(CCOCC2)c2nc(C#N)c(N3CCOCC3)cc21 [1′-(7-fluoro-3-methyl-2-(2-pyridinyl)-4-quinolinyl)-6′-(4-morpholinyl)-1′,2,2′,3,5,6-hexahydrospiro[pyran-4,3′-pyrrolo[3,2-b]pyridine]-5′-carbonitrile]	219
CC1(C)CN(c2c3c(nc4ccc(Cl)cc24)CCC3)c2cc(N3CCOCC3)ccc21 [7-chloro-9-(3,3-dimethyl-6-(4-morpholinyl)-2,3-dihydro-1H-indol-1-yl)-2,3-dihydro-1H-cyclopenta[b]quinoline]	772
COc1ccccc1-c1cc(N2CC(C)(C)c3ccc(N4CCOCC4)cc32)c2cc(Cl)ccc2n1 [6-chloro-4-(3,3-dimethyl-6-(4-morpholinyl)-2,3-dihydro-1H-indol-1-yl)-2-(2-methoxyphenyl)quinoline]	5560
Cc1c(-c2ccccn2)nc2cc(F)ccc2c1N1CCOc2ccc(N3CCOCC3)cc21 [4-(7-fluoro-3-methyl-2-(2-pyridinyl)-4-quinolinyl)-6-(4-morpholinyl)-3,4-dihydro-2H-1,4-benzoxazine]	351
Cc1c(-c2ccccn2)nc2cccc(F)c2c1N1CC(C)(C)c2ncc(N3CCOCC3)cc21 [4-(3,3-dimethyl-6-(4-morpholinyl)-2,3-dihydro-1H-pyrrolo[3,2-b]pyridin-1-yl)-5-fluoro-3-methyl-2-(2-pyridinyl)quinoline]	3.33

The remaining lines, values ahead:

Ki [nM]	SMILES
2.87	Cc1c(Cc2cccc(F)c2)nc2cc(F)cc(F)c2c1N1CC(C)(C)c2ncc(N3CCOCC3)cc21 [4-(3,3-dimethyl-6-(4-morpholinyl)-2,3-dihydro-1H-pyrrolo[3,2-b]pyridin-1-yl)-5,7-difluoro-2-(3-fluorobenzyl)-3-methylquinoline]
2.36	Cc1c(N2CCCC2=O)nc2cc(F)cc(F)c2c1N1CC2(CCOCC2)c2ncc(N3CCOCC3)cc21 [1-(5,7-difluoro-3-methyl-4-(6′-(4-morpholinyl)-2,3,5,6-tetrahydrospiro[pyran-4,3′-pyrrolo[3,2-b]pyridin]-1′(2′H)-yl)-2-quinolinyl)-2-pyrrolidinone]
6.48	Cc1c(-c2ccccn2)nc2cccc(F)c2c1N1CC2(CCOCC2)c2ncc(N3CCOCC3)cc21 [1′-(5-fluoro-3-methyl-2-(2-pyridinyl)-4-quinolinyl)-6′-(4-morpholinyl)-1′,2,2′,3,5,6-hexahydrospiro[pyran-4,3′-pyrrolo[3,2-b]pyridine]]
73.7	Cc1c(N2CCCCC2)nc2cc(F)cc(F)c2c1N1CC(C)(C)c2ccc(N3CCOCC3)cc21 [4-(3,3-dimethyl-6-(4-morpholinyl)-2,3-dihydro-1H-indol-1-yl)-5,7-difluoro-3-methyl-2-(1-piperidinyl)quinoline]
2.3	Cc1c(N2CCN(S(C)(=O)=O)CC2)nc2cc(F)cc(F)c2c1N1CC2(CCOCC2)c2ncc(N3CCOCC3)cc21 [1′-(5,7-difluoro-3-methyl-2-(4-(methylsulfonyl)-1-piperazinyl)-4-quinolinyl)-6′-(4-morpholinyl)-1′,2,2′,3,5,6-hexahydrospiro[pyran-4,3′-pyrrolo[3,2-b]pyridine]]
1.62	Cc1c(N2CCCCC2=O)nc2cc(F)ccc2c1N1CC2(CCOCC2)c2ncc(N3CCOCC3)cc21 [1-(7-fluoro-3-methyl-4-(6′-(4-morpholinyl)-2,3,5,6-tetrahydrospiro[pyran-4,3′-pyrrolo[3,2-b]pyridin]-1′(2′H)-yl)-2-quinolinyl)-2-piperidinone]
5.51	Cc1c(N2CCCCC2=O)nc2cc(F)cc(F)c2c1N1CC2(CCOCC2)c2ncc(N3CCOCC3)cc21 [1-(5,7-difluoro-3-methyl-4-(6′-(4-morpholinyl)-2,3,5,6-tetrahydrospiro[pyran-4,3′-pyrrolo[3,2-b]pyridin]-1′(2′H)-yl)-2-quinolinyl)-2-piperidinone]
1.49	COC(=O)N1CCN(c2nc3cc(F)cc(F)c3c(N3CC4(CCOCC4)c4ncc(N5CCOCC5)cc43)c2C)CC1 [methyl 4-(5,7-difluoro-3-methyl-4-(6′-(4-morpholinyl)-2,3,5,6-tetrahydrospiro[pyran-4,3′-pyrrolo[3,2-b]pyridin]-1′(2′H)-yl)-2-quinolinyl)-1-piperazinecarboxylate]
27.8	Cc1c(-c2cccc(F)c2)nc2ncccc2c1N1CC2(CCOCC2)c2ncc(N3CCOCC3)cc21 [1′-(2-(3-fluorophenyl)-3-methyl-1,8-naphthyridin-4-yl)-6′-(4-morpholinyl)-1′,2,2′,3,5,6-hexahydrospiro[pyran-4,3′-pyrrolo[3,2-b]pyridine]]
30.7	Cc1c(-c2ccccn2)nc2cnccc2c1N1CC2(CCOCC2)c2ncc(N3CCOCC3)cc21 [1′-(3-methyl-2-(2-pyridinyl)-1,7-naphthyridin-4-yl)-6′-(4-morpholinyl)-1′,2,2′,3,5,6-hexahydrospiro[pyran-4,3′-pyrrolo[3,2-b]pyridine]]
1.37	Cc1c(N2CCNCC2)nc2cc(F)cc(F)c2c1N1CC2(CCOCC2)c2ncc(N3CCOCC3)cc21 [1′-(5,7-difluoro-3-methyl-2-(1-piperazinyl)-4-quinolinyl)-6′-(4-morpholinyl)-1′,2,2′,3,5,6-hexahydrospiro[pyran-4,3′-pyrrolo[3,2-b]pyridine]]
